From PubChem BioAssay (NCI) come the findings set out here.

Holding throughout (assay): growth of human tumour cells (NCI), 48 h
In experiment [1] the test system is SNB-75 CNS.
The test system of experiment [2] is SR leukemia.
For experiment [3], the system named is ACHN renal.
Experiment [4] relates to SK-MEL-2 melanoma.
The test system of experiment [5] is OVCAR-5 ovarian.
Experiment [6] has as its system CCRF-CEM leukemia.
In experiment [7] the test system is MALME-3M melanoma.
Experiment [8] deals with SK-MEL-28 melanoma.
Experiment [9] concerns IGROV1 ovarian.
For experiment [10], the system named is RXF 393 renal.

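Grown in 96-well plates, cells were treated for 48 hours with each compound at five concentrations. Insufficient inhibition: endpoint recorded as highest concentration tested. At the GI50, growth is halved. TGI marks complete inhibition of growth.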

`c1cnc2c(c1)-n1cccc1C1(CCSCC1)NN2`: the TGI in experiment [1], in experiment [2], in experiment [3], in experiment [4], in [5] and in experiment [6] was greater than 100 µM throughout. Also, the TGI in experiment [7] and in [8] was greater than 100 µM in each case.
As for `CCN(CC)CCn1c2c3ccccc3ccc2c2oc(=O)c3ccccc3c21`, the TGI in experiment [9] is greater than 100 µM; in experiment [1], 42.8 µM; in experiment [2] it was greater than 100 µM; in [3], greater than 100 µM; in experiment [4] it was greater than 100 µM; in experiment [5], greater than 100 µM. Further, the TGI in experiment [6], in experiment [7] and in [8] was greater than 100 µM each time.
As for `O=[N+]([O-])c1c(/C=N/Nc2ccccc2)oc(-c2ccc3c(c2)OCO3)c1-c1ccc2c(c1)OCO2`, the TGI in experiment [9] was greater than 100 µM; in experiment [10], greater than 100 µM; in experiment [1], greater than 100 µM; in experiment [2], 29.8 µM; in experiment [3], greater than 100 µM; in experiment [4] it was 24.2 µM. In addition, the TGI in [5], in experiment [7] and in experiment [8] was greater than 100 µM each time.
On to `CCN(CC)CCNc1c(OC)cc(C)c2sc3ccccc3c(=O)c12`, for which the TGI amounted to 20.7 µM in experiment [9]; 34 µM in experiment [10]; 28.7 µM in [1]; 5.33 µM in experiment [2]; 15.8 µM in [3]; 27.9 µM in experiment [4]. For the same compound, the TGI turned out to be 13.4 µM in experiment [5], 6.08 µM in experiment [7] and 5.1 µM in experiment [8].
Consider `CCN(CC)CCCCC1CCN(CC(=O)N2CC(C)C(=O)Nc3ccccc32)CC1` (stereo unspecified), for which the TGI in [9], in experiment [2], in [3], in experiment [5], in [6] and in experiment [7] was greater than 100 µM each time. In [8], this compound registered a TGI greater than 100 µM.
On to `CN(C)c1ccc(/C=C2\Oc3cc(O)ccc3C2=O)cc1`, for which the TGI in experiment [9], in [10], in [1], in [2], in experiment [3] and in [6] was greater than 100 µM in each case. Moreover, the TGI in [8] is greater than 100 µM.
For the compound `CN1CCN(CCSC2Cc3cc(Cl)ccc3Sc3ccccc32)CC1` (stereo unspecified), the TGI in experiment [9] worked out at 25.6 µM; in experiment [10], 15.3 µM; in [1], 15.7 µM; in experiment [2], 19.9 µM; in experiment [3], 19.8 µM; in experiment [4], 3.75 µM. Further, the TGI in experiment [5] is 18.2 µM; in experiment [7], 5.8 µM; in [8] it was 3.5 µM.
For `Cc1nc2ccc(C(F)(F)F)cc2nc1Nc1ccc(Cl)c(Cl)c1`, the TGI in [10] was 19.1 µM; in [2] it was 51.9 µM; in [3], 23.4 µM; in [4], 30.2 µM; in [5], 28.7 µM; in experiment [6] it was 26.7 µM. Further, the TGI in [7] came to 35.7 µM; in experiment [8], 24.7 µM.
For the compound `COc1ccc2c(c1)sc1nc(-c3ccccc3)c(-c3ccsc3)n12`, the GI50 was 6.53 µM in [9]; 2.02 µM in [2]; 6.76 µM in experiment [3]; 9.72 µM in [4]; 4.49 µM in experiment [5]; greater than 100 µM in experiment [7]. Further, the GI50 in experiment [8] was 4.9 µM. The TGI in [9], in [2], in experiment [3], in experiment [4], in experiment [5] and in experiment [7] was greater than 100 µM in each case. In experiment [8], this compound gave a TGI greater than 100 µM.
Regarding `COC(=O)c1c(-c2ccccc2)cc2c3cc(-c4ccccc4)c(C(=O)OC)n3c3ccccc3n12`, the TGI in [9] was greater than 100 µM; in [10] it was greater than 94.7 µM; in experiment [1] it was 91.6 µM; in [3] it was greater than 100 µM; in [4] it was greater than 100 µM; in experiment [5], greater than 100 µM. In addition, the TGI in [6], in experiment [7] and in experiment [8] was greater than 100 µM in each case.
Take `CC(C)c1ccc(Cc2cnc(NC(=O)c3cc(Br)cs3)s2)cc1`: the GI50 in [9] is 3.7 µM; in experiment [10] it was 1.75 µM; in experiment [1], 1.05 µM; in experiment [3], 4.64 µM; in experiment [4], 7.43 µM; in experiment [5], 4.95 µM. Further, the GI50 in experiment [6] is 4.08 µM; in [7], 3.44 µM; in experiment [8] it was 5.41 µM. Besides, the TGI in [9] was greater than 100 µM; in [10], 5.97 µM; in [1], 7.76 µM; in experiment [3], greater than 100 µM; in [4] it was 64.4 µM; in experiment [5], greater than 100 µM. For the same compound, the TGI in [6], in [7] and in [8] was greater than 100 µM in each case.
For `O=c1cc(-c2ccccc2)[nH]c2cccc(S)c12`, the TGI in [9] was greater than 100 µM; in [10] it was 0.469 µM; in experiment [2], greater than 100 µM; in experiment [3], greater than 100 µM; in experiment [5] it was greater than 100 µM; in experiment [6] it was greater than 100 µM. For the same compound, the TGI in [7] and in [8] was greater than 100 µM each time.
For `Oc1ccc(Br)cc1Sc1cc(Br)ccc1O`, the GI50 in [9] was 15.7 µM; in [1] it was 4.29 µM; in experiment [2], 5.39 µM; in experiment [3], 6.4 µM; in experiment [4] it was 5.62 µM; in [5], 15.8 µM. The GI50 in [6] was 5.25 µM; in experiment [8], 4.78 µM. The TGI in experiment [9] was determined as 36.3 µM; in experiment [1], 19.7 µM; in experiment [2] it was 25.3 µM; in experiment [3], 20.8 µM; in [4], 17.7 µM; in experiment [5], 32.1 µM. The results for the TGI in experiment [6] and in experiment [8] were 24.8 µM and 16.6 µM, respectively.
